Test results taken from publication PMC6982817, “Substituted N-(Pyrazin-2-yl)benzenesulfonamides; Synthesis, Anti-Infective Evaluation, Cytotoxicity, and In Silico Studies” (Molecules, 2019).
Converted amounts (≈) assume the structure as drawn. Where two headings read alike, the source gives them in different places. Values belong to the molecule of their own block, whether it stands above or below them.

Columns and labels:
[1] = tested on: Mycobacterium tuberculosis H37Rv CNCTC My 331/88 (ATCC 27294); conditions: cited from earlier work; for Antimycobacterial Activity MIC against Mtb H37Rv, Amide: previously published pyrazinecarboxamides, methodology not identical; for Antimycobacterial Activity MIC against Mtb H37Rv, Retro-amide: previously published N-pyrazinylbenzamides
[2] = tested on: Mycobacterium smegmatis DSM 43465 (ATCC 607); test: Antimycobacterial microdilution assay, M. smegmatis; type: cell-based; conditions: Middlebrook 7H9 broth, resazurin after 48 hours; for MIC: Mycolicibacterium smegmatis, 48 h, read-out: Antimycobacterial Activity MIC M. smeg
[3] = tested on: Mycobacterium aurum DSM 43999 (ATCC 23366); test: Antimycobacterial microdilution assay, M. aurum; type: cell-based; conditions: Middlebrook 7H9 broth, resazurin after 72 hours; for MIC: Mycolicibacterium aurum, 72 h
[4] = tested on: Staphylococcus aureus CCM 4223 (ATCC 29213); test: Antibacterial microdilution broth, S. aureus; type: cell-based; conditions: 48 h, read-out: MIC against Staphylococcus aureus
[5] = tested on: Staphylococcus aureus methicillin-resistant CCM 4750 (ATCC 43300); test: Antibacterial microdilution broth, MRSA; type: cell-based; conditions: 48 h, read-out: MIC against Staphylococcus aureus methicillin resistant
[6] = tested on: Enterococcus faecalis CCM 4224 (ATCC 29212); test: Antibacterial microdilution broth, E. faecalis; type: cell-based; conditions: 48 h, read-out: MIC against Enterococcus faecalis
[7] = tested on: Escherichia coli CCM 3954 (ATCC 25922); test: Antibacterial microdilution broth, E. coli; type: cell-based; conditions: 48 h, read-out: MIC against Escherichia coli
[8] = tested on: Pseudomonas aeruginosa CCM 3955 (ATCC 27853); test: Antibacterial microdilution broth, P. aeruginosa; type: cell-based; conditions: 48 h, read-out: MIC against Pseudomonas aeruginosa
[9] = tested on: Staphylococcus epidermidis 112-2016; test: Antibacterial microdilution broth, S. epidermidis; type: cell-based; conditions: Staphylococcus epidermidis, 1122016, 48 h; read-out: MIC against Staphylococcus epidermidis
[10] = tested on: Klebsiella pneumoniae 64-2016; test: Antibacterial microdilution broth, K. pneumoniae; type: cell-based; conditions: Klebsiella pneumoniae, 642016, 48 h; read-out: MIC against Klebsiella pneumonia
[11] = tested on: Serratia marcescens 62-2016; test: Antibacterial microdilution broth, S. marcescens; type: cell-based; conditions: Serratia marcescens, 622016, 48 h; read-out: MIC against Serratia marcescens
[12] = tested on: Mycobacterium tuberculosis H37Rv CNCTC My 331/88 (ATCC 27294); test: Antimycobacterial microplate alamar blue assay, M. tuberculosis H37Rv; type: cell-based; conditions: for MIC: Mycobacterium tuberculosis
[13] = tested on: M. kansasii CNCTC My 235/80 (ATCC 12478); test: Antimycobacterial microplate alamar blue assay, M. kansasii; type: cell-based, Mycobacterium kansasii; conditions: Mycobacterium kansasii
[14] = tested on: M. avium ssp. avium CNCTC My 80/72 (ATCC 15769); test: Antimycobacterial microplate alamar blue assay, M. avium; type: cell-based, Mycobacterium avium; conditions: for MIC: Mycobacterium avium
in vitro = conditions: human
physchem [15] = test: physchem
physchem [16] = test: physchem; remark: listed apart in the source
HepG2 cells = conditions: cited from earlier work
[17] = tested on: four Gram-positive and four Gram-negative bacterial strains; test: Antibacterial screening, microdilution broth, panel of eight strains; type: cell-based; conditions: concentration scale 500–0.97 μM
[18] = tested on: C. krusei CCM 8271 (ATCC 6258); test: Antifungal microdilution broth, C. krusei; type: cell-based, Candida krusei; conditions: Pichia kudriavzevii, 48 h; read-out: MIC against C. krusei
[19] = tested on: C. parapsilosis CCM 8260 (ATCC 22019); test: Antifungal microdilution broth, C. parapsilosis; type: cell-based, Candida parapsilosis; conditions: Lodderomyces parapsilosis, 48 h; read-out: MIC against C. parapsilosis
[20] = tested on: C. tropicalis CCM 8264 (ATCC 750); test: Antifungal microdilution broth, C. tropicalis; type: cell-based; conditions: Candida tropicalis, 48 h; read-out: MIC against C. tropicalis
[21] = tested on: Aspergillus flavus CCM 8363; test: Antifungal microdilution broth, A. flavus; type: cell-based; conditions: CCM8363, 48 h, read-out: MIC against Aspergillus flavus
[22] = tested on: Lichtheimia corymbifera CCM 8077; test: Antifungal microdilution broth, L. corymbifera; type: cell-based; conditions: CCM8077, 48 h, read-out: MIC against Lichtheimia corymbifera
[23] = tested on: Trichophyton interdigitale CCM 8377 (ATCC 9533); test: Antifungal microdilution broth, T. interdigitale; type: cell-based; conditions: 72 h, read-out: MIC against Trichophyton interdigitale
[24] = tested on: Candida albicans CCM 8320 (ATCC 24433); test: Antifungal microdilution broth, C. albicans; type: cell-based; conditions: 48 h, read-out: MIC against Candida albicans
[25] = tested on: Aspergillus fumigatus ATCC 204305; test: Antifungal microdilution broth, A. fumigatus; type: cell-based; conditions: ATCC204305, 48 h, read-out: MIC against Aspergillus fumigatus
[26] = pH 6.6, Middlebrook 7H9 broth pH 6.6, alamar blue, read-out: Antimycobacterial Activity MIC Mtb H37Rv
[27] = ATCC12478, pH 6.6, Middlebrook 7H9 broth pH 6.6, alamar blue, read-out: Antimycobacterial Activity MIC M. kansasii
[28] = ATCC15769, pH 6.6, Middlebrook 7H9 broth pH 6.6, alamar blue, read-out: Antimycobacterial Activity MIC M. avium
[29] = Middlebrook 7H9 broth pH 6.6, alamar blue
[30] = ATCC12478, molar value printed beside μg/mL in text, read-out: MIC M. kansasii

Structure (SMILES): O=C(Nc1ccccc1)c1cncc(Cl)n1 [Amide R^1 6-Cl R^2 H]
Antimycobacterial Activity MIC against Mtb H37Rv, Amide [1]: >100 µg/mL

Structure (SMILES): COc1ccc(NC(=O)c2cnccn2)cc1 [Amide R^1 H R^2 4-OCH3]
Antimycobacterial Activity MIC against Mtb H37Rv, Amide [1]: 25 µg/mL

Structure (SMILES): O=C(Nc1ccccc1)c1cnccn1 [Amide R^1 H R^2 H]
Antimycobacterial Activity MIC against Mtb H37Rv, Amide [1]: 100 µg/mL

Structure (SMILES): O=C(O)c1cn(C2CC2)c2cc(N3CCNCC3)c(F)cc2c1=O [CPX]
Antimycobacterial Activity MIC M. smeg [2]: 0.125 µg/mL
MIC [2]: 0.0625 to 0.125 µg/mL (≈ 0.189 to 0.377 µM)
Antimycobacterial Activity MIC M. aurum [3]: 0.008 µg/mL
MIC [3]: 0.00781 to 0.0156 µg/mL (≈ 0.0236 to 0.0472 µM)
MIC [4]: 0.128 to 0.256 µg/mL (≈ 0.386 to 0.773 µM)
MIC [5]: 0.128 µg/mL (≈ 0.386 µM)
MIC [6]: 0.512 µg/mL (≈ 1.55 µM)
MIC [7]: 0.008 µg/mL (≈ 0.0241 µM)
MIC [8]: 0.128 µg/mL (≈ 0.386 µM)
MIC [9]: > 1.02 µg/mL
MIC [10]: > 1.02 µg/mL
MIC [11]: 0.256 µg/mL (≈ 0.773 µM)

Structure (SMILES): COc1ccc(S(=O)(=O)Nc2cncc(Cl)n2)cc1 [Compound 6b, N-(6-chloropyrazin-2-yl)-4-methoxybenzenesulfonamide]
MIC [12, 26]: > 100 µg/mL
MIC [13, 27]: 100 µg/mL
MIC [14, 28]: > 100 µg/mL
MIC [2]: ≥ 500 µg/mL
MIC [3]: ≥ 500 µg/mL
IC50 at 24 h (in vitro): > 1 mM
pKa (physchem [15]): 6.95
pKa (physchem [16]): 7.21

Structure (SMILES): Cc1cc(C)c(S(=O)(=O)Nc2cncc(Cl)n2)c(C)c1 [Compound 9b, N-(6-chloropyrazin-2-yl)-2,4,6-trimethylbenzenesulfonamide]
MIC [12, 26]: > 100 µg/mL
MIC [13, 27]: 50 µg/mL
MIC [14, 28]: > 100 µg/mL
MIC [2]: ≥ 500 µg/mL
MIC [3]: ≥ 500 µg/mL
melting point: 179.7 to 180.2 °C
IC50 at 24 h (in vitro): 0.179 mM
pKa (physchem [15]): 6.32
pKa (physchem [16]): 6.38

Structure (SMILES): O=S(=O)(Nc1cncc(Cl)n1)c1ccc2ccccc2c1 [Compound 13b, N-(6-chloropyrazin-2-yl)naphthalene-2-sulfonamide]
MIC [12, 26]: 50 µg/mL
MIC [13, 27]: 50 µg/mL
MIC [14, 28]: > 100 µg/mL
MIC [2]: 125 µg/mL (≈ 391 µM)
MIC [3]: 250 µg/mL (≈ 782 µM)
melting point: 204.6 to 207 °C
IC50 at 24 h (in vitro): > 1 mM
pKa (physchem [15]): 5.63
pKa (physchem [16]): 5.75

Structure (SMILES): NNC(=O)c1ccncc1 [INH, reference compound]
Antimycobacterial Activity MIC Mtb H37Rv [12, 29]: 0.2 µg/mL
MIC [12, 26]: 0.1 to 0.2 µg/mL
MIC [13, 30]: 182 µM
Antimycobacterial Activity MIC M. avium [14, 29]: 12.5 µg/mL
MIC [14, 28]: 6.25 to 12.5 µg/mL
IC50 (HepG2 cells): 79 mM

Structure (SMILES): NC(=O)c1cnccn1 [PZA, reference compound]
MIC [12, 26]: > 100 µg/mL
MIC [13, 27]: > 100 µg/mL
MIC [14, 28]: > 100 µg/mL
MIC [2]: ≥ 500 µg/mL
MIC [3]: ≥ 500 µg/mL
IC50 (HepG2 cells): > 10 mM

Structure (SMILES): O=C(Nc1cncc(Cl)n1)c1ccccc1 [Retro-amide R^1 6-Cl R^2 H]
Antimycobacterial Activity MIC against Mtb H37Rv, Retro-amide [1]: 25 µg/mL

Structure (SMILES): COc1ccc(C(=O)Nc2cnccn2)cc1 [Retro-amide R^1 H R^2 4-OCH3]
Antimycobacterial Activity MIC against Mtb H37Rv, Retro-amide [1]: >100 µg/mL

Structure (SMILES): O=C(Nc1cnccn1)c1ccccc1 [Retro-amide R^1 H R^2 H]
Antimycobacterial Activity MIC against Mtb H37Rv, Retro-amide [1]: >100 µg/mL

Structure (SMILES): Cc1cc(NS(=O)(=O)c2ccc(N)cc2)no1 [Sulfamethoxazole, 4-amino-N-(5-methylisoxazol-3-yl)benzenesulfonamide, reference compound]
MIC [12, 26]: 3.13 µg/mL
MIC ([12]; read-out: MIC Mtb H37Rv): 12 µM
MIC [13, 30]: 12 µM
MIC [13, 27]: 3.13 µg/mL
MIC ([14]; ATCC15769, molar value printed beside μg/mL in text, read-out: MIC M. avium): 49 µM
MIC [14, 28]: 12.5 µg/mL
MIC [2]: 250 µg/mL (≈ 987 µM)
MIC [3]: ≥ 500 µg/mL
antibacterial activity MIC [17]: not active against any of the tested bacterial strains

MIC [18]: 1 µg/mL (≈ 1.08 µM)
MIC [19]: 0.5 µg/mL (≈ 0.541 µM)
MIC [20]: 1 µg/mL (≈ 1.08 µM)
MIC [21]: 8 µg/mL (≈ 8.66 µM)
MIC [22]: 0.5 µg/mL (≈ 0.541 µM)
MIC [23]: 2 µg/mL (≈ 2.16 µM)
Structure (SMILES): C[C@@H]1[C@H](O)[C@@H](C)/C=C/C=C/C=C/C=C/C=C/C=C/C=C/[C@H](O[C@@H]2O[C@H](C)[C@@H](O)[C@H](N)[C@@H]2O)C[C@@H]2O[C@](O)(C[C@@H](O)C[C@@H](O)[C@H](O)CC[C@@H](O)C[C@@H](O)CC(=O)O[C@H]1C)C[C@H](O)[C@H]2C(=O)O [amphotericin B]

MIC [4]: 1 µg/mL (≈ 2.09 µM)
MIC [5]: 16 to 32 µg/mL (≈ 33.5 to 67 µM)
MIC [6]: 8 µg/mL (≈ 16.8 µM)
MIC [7]: 1 to 2 µg/mL (≈ 2.09 to 4.19 µM)
MIC [8]: 0.5 µg/mL (≈ 1.05 µM)
MIC [9]: > 8 µg/mL
MIC [10]: > 8 µg/mL
MIC [11]: 2 µg/mL (≈ 4.19 µM)
Structure (SMILES): CNC(C)C1CCC(N)C(OC2C(N)CC(N)C(OC3OCC(C)(O)C(NC)C3O)C2O)O1 (stereo not drawn) [gentamicin]

MIC [24]: > 16 µg/mL
MIC [18]: 0.5 µg/mL (≈ 1.43 µM)
MIC [19]: 8 µg/mL (≈ 22.9 µM)
MIC [20]: > 16 µg/mL
MIC [21]: > 16 µg/mL
MIC [22]: > 16 µg/mL
MIC [23]: > 16 µg/mL
MIC [25]: 1 µg/mL (≈ 2.86 µM)
Structure (SMILES): C[C@@H](c1ncncc1F)[C@](O)(Cn1cncn1)c1ccc(F)cc1F [voriconazole]
